In US7781005B2, “Sweetener composition” (Ajinomoto Co., Inc., priority 2004, dated 2010):

Columns and labels:
[1] = Photodecomposition of monatin in beverage model solution in PET container under D65 fluorescence lamp, HPLC; format: physicochemical; settings: D65 lamp 3000 lux, 165 hr
Procedure: Temperature: 25° C. constant temperature room (forced circulation).
HPLC Analysis Conditions:
The pH of a beverage model solution, a (citric acid 2 g, sodium benzoate 0.045 g)/L solution, was adjusted with 8N sodium hydroxide. (2R, 4R)monatin potassium salt (25 mg) and various additives were dissolved in the adjusted beverage model solution (500 mL) and filled in PET containers. […] The solution was simultaneously filled in a 20 ml screw cap vial and left standing for the same time in the same constant temperature room under a light shield. These light exposure solutions and light shield solutions were subjected to HPLC analysis, and photodecomposition rates were calculated by the following formula: The photodecomposition rate (%)=(1−(mass % concentration of monatin in light exposure solution/mass % concentration of monatin in light shield solution))×100 […]

[2] = Decomposition of monatin in solution by ultraviolet light (findings of the inventor); format: physicochemical; settings: solution state

Row | Molecule | photodecomposition rate ([1]; pH 2.8, 50 ppm) [%] | photodecomposition rate ([1]; pH 3.1, 50 ppm) [%] | photodecomposition rate ([1]; pH 3.5, 50 ppm) [%] | photodecomposition rate ([1]; pH 4, 50 ppm) [%] | photodecomposition rate ([1]; pH 4.5, 50 ppm) [%] | photodecomposition rate ([1]; pH 5.5, 50 ppm) [%] | photodecomposition rate ([1]; pH 6.5, 50 ppm) [%] | decomposition by ultraviolet light [2]
1 | N[C@@H](Cc1c[nH]c2ccccc12)C(=O)O [Trp, tryptophan, reference compound] | 7.3 | 6.0 | 6.2 | 5.5 | 5.4 | 12.5 | 55.1 | 
2 | N[C@@H](C[C@@](O)(Cc1c[nH]c2ccccc12)C(=O)O)C(=O)O [monatin] | 52.5 | 45.1 | 27.6 | 15.9 | 10.2 | 4.8 | 4.3 | tends to decompose when exposed to ultraviolet light
3 | (2R,4S)monatin |  |  |  |  |  |  |  | tend to be more easily decomposed by ultraviolet light than the other isomers
4 | (2S,4R)monatin |  |  |  |  |  |  |  | tend to be more easily decomposed by ultraviolet light than the other isomers
